Experiment [1] concerns the target Human recombinant PDE4 (Homo sapiens (Human), UniProt Q08499). In words: PDE4 assay (SPA, cAMP cleavage). It is filed as biochemical. The conditions noted are these: human recombinant PDE4, 1 hour incubation, cAMP 1×10^-5M. As to the method:
At the end of the incubation, the cleavage of the substrate was evaluated by the binding of the AMP product to SPA beads, which generate chemo luminescence when bound to the radioactive tracer. The AMP product inhibited the binding of the radioactive tracer to the beads, and the luminescent signal was competed.

For experiment [2], the system named is Human peripheral blood mononuclear cells (PBMC). In words: TNFα release in LPS-stimulated PBMC. It is filed as cell-based. Conditions: 30 minutes pre-incubation, lipopolysaccharide stimulation 18 hours, read-out: TNFa IC50. As to the method:
Human peripheral blood mononuclear cells (PBMC) were isolated from buffy coats. […] The PBMC were suspended in RPMI1640 with 2% foetal calf serum (FCS), pen/strep and 2 mM L-glutamine at a concentration of 5×105 c/ml. The cells were pre-incubated for 30 minutes with the test compounds in 96 well tissue culture plates and stimulated for 18 hours with lipopolysaccharide […] (Sigma). The level of TNFα was measured in the culture supernatant by enzyme immuno assays using primary and secondary biotinylated antibodies from R&D systems.

Structures are written as SMILES.

Sequence of Human recombinant PDE4 (Q08499 other isoform, or with tags, fused parts or gaps): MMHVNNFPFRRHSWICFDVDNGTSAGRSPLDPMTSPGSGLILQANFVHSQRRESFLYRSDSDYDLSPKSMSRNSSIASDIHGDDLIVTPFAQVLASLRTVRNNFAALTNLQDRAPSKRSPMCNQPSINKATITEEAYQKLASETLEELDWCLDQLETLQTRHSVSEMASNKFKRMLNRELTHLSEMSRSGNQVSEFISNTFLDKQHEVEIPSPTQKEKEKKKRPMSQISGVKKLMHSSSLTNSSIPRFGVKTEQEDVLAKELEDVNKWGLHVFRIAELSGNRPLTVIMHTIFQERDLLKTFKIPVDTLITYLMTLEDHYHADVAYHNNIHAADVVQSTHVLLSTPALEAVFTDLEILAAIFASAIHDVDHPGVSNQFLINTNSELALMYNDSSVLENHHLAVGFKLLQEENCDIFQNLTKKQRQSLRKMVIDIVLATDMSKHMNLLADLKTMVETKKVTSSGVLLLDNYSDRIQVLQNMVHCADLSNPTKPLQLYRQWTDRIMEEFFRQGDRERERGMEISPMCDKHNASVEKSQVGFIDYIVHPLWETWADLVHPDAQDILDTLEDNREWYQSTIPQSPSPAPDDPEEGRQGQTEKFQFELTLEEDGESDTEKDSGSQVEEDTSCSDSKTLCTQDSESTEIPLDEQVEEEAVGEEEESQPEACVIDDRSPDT

As to `COc1ccc(C(=O)Cc2c(Cl)cncc2Cl)n2nc(C3CC3)nc12` [Compound 101, 1-(2-cyclopropyl-8-methoxy-[1,2,4]triazolo[1,5-a]pyridin-5-yl)-2-(3,5-dichloro-pyridin-4-yl)-ethanone], the IC50 (in general, the point on the concentration scale where inhibition reaches its midpoint) was found to be 2 nM in experiment [1] and 3 nM in experiment [2].

With `COc1ccc(C(=O)Cc2c(Cl)cncc2Cl)n2ncnc12` [Compound 102, 2-(3,5-Dichloro-pyridin-4-yl)-1-(8-methoxy-[1,2,4]triazolo[1,5-a]pyridin-5-yl)-ethanone], the half-maximal inhibitory concentration (IC50) in experiment [1] stood at 134 nM; in experiment [2] it was 291 nM.

Turning to `COc1ccc(C(=O)Cc2c(Cl)cncc2Cl)n2nc(-c3ccco3)nc12` [Compound 103, 2-(3,5-Dichloro-pyridin-4-yl)-1-(2-furan-2-yl-8-methoxy-[1,2,4]triazolo[1,5-a]pyridin-5-yl)-ethanone], the half-inhibitory concentration (IC50) in experiment [1] was found to be 7 nM; in experiment [2] it was 27 nM.

For `COc1ccc(C(=O)Cc2c(Cl)cncc2Cl)n2nc(COCc3ccccc3)nc12` [Compound 104, 1-(2-Benzyloxymethyl-8-methoxy-[1,2,4]triazolo[1,5-a]pyridin-5-yl)-2-(3,5-dichloro-pyridin-4-yl)-ethanone], the half-inhibitory concentration (IC50) in experiment [1] came to 26 nM; in experiment [2], 66 nM.

On to `COc1ccc(C(=O)Cc2c(Cl)cncc2Cl)n2nc(CO)nc12` [Compound 105, 2-(3,5-Dichloro-pyridin-4-yl)-1-(2-hydroxymethyl-8-methoxy-[1,2,4]triazolo[1,5-a]pyridin-5-yl)-ethanone], for which the IC50 in experiment [1] was found to be 305 nM; in experiment [2], 603 nM.

In the case of `COc1ccc(C(=O)Cc2c(Cl)cncc2Cl)n2nc(C3(CO)CC3)nc12` [Compound 106, 2-(3,5-Dichloro-pyridin-4-yl)-1-[2-(1-hydroxymethyl-cyclopropyl)-8-methoxy-[1,2,4]triazolo[1,5-a]pyridin-5-yl]-ethanone], the concentration for half-maximal inhibition (IC50) in experiment [1] turned out to be 4 nM; in experiment [2] it was 5 nM.

Consider `COc1ccc(C(=O)Cc2c(Cl)cncc2Cl)n2nc(C)nc12` [Compound 107, 2-(3,5-Dichloro-pyridin-4-yl)-1-(8-methoxy-2-methyl-[1,2,4]triazolo[1,5-a]pyridin-5-yl)-ethanone], for which the half-inhibitory concentration (IC50) in experiment [1] was 45 nM; in experiment [2] it was 117 nM.

For the compound `COc1ccc(C(=O)Cc2c(Cl)cncc2Cl)n2nc(C3(C(=O)O)CC3)nc12` [Compound 108, 1-{5-[2-(3,5-Dichloro-pyridin-4-yl)-acetyl]-8-methoxy-[1,2,4]triazolo[1,5-a]pyridin-2-yl}-cyclopropanecarboxylic acid], the IC50 in experiment [1] turned out to be 55 nM.

With `COc1ccc(C(=O)Cc2c(Cl)cncc2Cl)n2nc(C3(C(=O)N4CCOCC4)CC3)nc12` [Compound 109, 2-(3,5-Dichloro-pyridin-4-yl)-1-{8-methoxy-2-[1-(morpholine-4-carbonyl)-cyclopropyl]-[1,2,4]triazolo[1,5-a]pyridin-5-yl}-ethanone], the 50% inhibitory concentration (IC50) in experiment [1] is 24 nM; in experiment [2], 29 nM.

On to `COc1ccc(C(=O)Cc2c(Cl)cncc2Cl)n2nc(C3(C(=O)NCc4ccccc4)CC3)nc12` [Compound 110, 1-{5-[2-(3,5-Dichloro-pyridin-4-yl)-acetyl]-8-methoxy-[1,2,4]triazolo[1,5-a]pyridin-2-yl}-cyclopropanecarboxylic acid benzylamide], for which the IC50 in experiment [1] is 0.5 nM; in experiment [2], 0.7 nM.

Take `COc1ccc(C(=O)Cc2c(Cl)cncc2Cl)n2nc(C3(C(=O)NCc4ccccn4)CC3)nc12` [Compound 112, 1-{5-[2-(3,5-Dichloro-pyridin-4-yl)-acetyl]-8-methoxy-[1,2,4]triazolo[1,5-a]pyridin-2-yl}-cyclopropanecarboxylic acid (pyridin-2-ylmethyl)-amide]: the IC50 came to 1 nM in experiment [1] and 0.6 nM in experiment [2].

For `COc1ccc(C(=O)Cc2c(Cl)cncc2Cl)n2nc(C3(C(=O)NCc4cccnc4)CC3)nc12` [Compound 113, 1-{5-[2-(3,5-Dichloro-pyridin-4-yl)-acetyl]-8-methoxy-[1,2,4]triazolo[1,5-a]pyridin-2-yl}-cyclopropanecarboxylic acid (pyridin-3-ylmethyl)-amide], the figures for the IC50 in experiment [1] and in experiment [2] were 0.7 nM and 0.5 nM, respectively.

With `COc1ccc(C(=O)Cc2c(Cl)cncc2Cl)n2nc(C3(C(=O)NCc4ccncc4)CC3)nc12` [Compound 114, 1-{5-[2-(3,5-Dichloro-pyridin-4-yl)-acetyl]-8-methoxy-[1,2,4]triazolo[1,5-a]pyridin-2-yl}-cyclopropanecarboxylic acid (pyridin-4-ylmethyl)-amide], the figures for the IC50 in experiment [1] and in experiment [2] were 0.4 nM and 0.2 nM, respectively.

On to `COc1ccc(C(=O)Cc2c(Cl)cncc2Cl)n2nc(C3(C(=O)NCC(C)(C)C)CC3)nc12` [Compound 115, 1-{5-[2-(3,5-Dichloro-pyridin-4-yl)-acetyl]-8-methoxy-[1,2,4]triazolo[1,5-a]pyridin-2-yl}-cyclopropanecarboxylic acid (2,2-dimethyl-propyl)-amide], for which the half-inhibitory concentration (IC50) in experiment [1] was determined as 0.2 nM.

In the case of `COc1ccc(C(=O)Cc2c(Cl)cncc2Cl)n2nc(C3(C(=O)NC4CCCC4)CC3)nc12` [Compound 116, 1-{5-[2-(3,5-Dichloro-pyridin-4-yl)-acetyl]-8-methoxy-[1,2,4]triazolo[1,5-a]pyridin-2-yl}-cyclopropanecarboxylic acid cyclopentylamide], the IC50 in experiment [1] is 0.1 nM.

With `COc1ccc(C(=O)Cc2c(Cl)cncc2Cl)n2nc(C3(C(N)=O)CC3)nc12` [Compound 118, 1-{5-[2-(3,5-Dichloro-pyridin-4-yl)-acetyl]-8-methoxy-[1,2,4]triazolo[1,5-a]pyridin-2-yl}-cyclopropanecarboxylic acid amide], the IC50 in experiment [1] turned out to be 3 nM; in experiment [2], 2 nM.

Turning to `COc1ccc(C(=O)Cc2c(Cl)cncc2Cl)n2nc(C3(CNCc4ccccc4)CC3)nc12` [Compound 119, 1-{2-[1-(Benzylamino-methyl)-cyclopropyl]-8-methoxy-[1,2,4]triazolo[1,5-a]pyridin-5-yl}-2-(3,5-dichloro-pyridin-4-yl)-ethanone], the IC50 in experiment [1] was found to be 8 nM; in experiment [2] it was 13 nM.

Take `COc1ccc(C(=O)Cc2cnccn2)n2nc(C3(CO)CC3)nc12` [Compound 120, 1-[2-(1-Hydroxymethyl-cyclopropyl)-8-methoxy-[1,2,4]triazolo[1,5-a]pyridin-5-yl]-2-pyrazin-2-yl-ethanone]: the values for the half-inhibitory concentration (IC50) in experiment [1] and in experiment [2] were 2500 nM and 2200 nM, respectively.

Turning to `COc1ccc(C(=O)Cc2ccnc3ccccc23)n2nc(C3(CO)CC3)nc12` [Compound 121, 1-[2-(1-Hydroxymethyl-cyclopropyl)-8-methoxy-[1,2,4]triazolo[1,5-a]pyridin-5-yl]-2-quinolin-4-yl-ethanone], the IC50 stood at 3600 nM in experiment [1] and 2100 nM in experiment [2].

`COc1ccc(C(=O)Cc2ccncc2)n2nc(C3(CO)CC3)nc12` [Compound 122, 1-[2-(1-Hydroxymethyl-cyclopropyl)-8-methoxy-[1,2,4]triazolo[1,5-a]pyridin-5-yl]-2-pyridin-4-yl-ethanone]: the IC50 in experiment [1] came to 261 nM; in experiment [2], 139 nM.

In the case of `COc1ccc(C(=O)Cc2c(Br)cncc2Br)n2nc(C3(CO)CC3)nc12` [Compound 123, 2-(3,5-Dibromo-pyridin-4-yl)-1-[2-(1-hydroxymethyl-cyclopropyl)-8-methoxy-[1,2,4]triazolo[1,5-a]pyridin-5-yl]-ethanone], the figures for the half-maximal inhibitory concentration (IC50) in experiment [1] and in experiment [2] were 68 nM and 15 nM, respectively.

Consider `COc1ccc(C(=O)Cc2ccncc2Br)n2nc(C3(CO)CC3)nc12` [Compound 124, 2-(3-Bromo-pyridin-4-yl)-1-[2-(1-hydroxymethyl-cyclopropyl)-8-methoxy-[1,2,4]triazolo[1,5-a]pyridin-5-yl]-ethanone], for which the results for the IC50 in experiment [1] and in experiment [2] were 52 nM and 115 nM, respectively.

Turning to `COc1ccc(C(=O)Cc2ccnc(C#N)c2)n2nc(C3(CO)CC3)nc12` [Compound 125, 4-{2-[2-(1-Hydroxymethyl-cyclopropyl)-8-methoxy-[1,2,4]triazolo[1,5-a]pyridin-5-yl]-2-oxo-ethyl}-pyridine-2-carbonitrile], the values for the concentration for half-maximal inhibition (IC50) in experiment [1] and in experiment [2] were 3100 nM and 4800 nM, respectively.

Consider `COc1ccc(C(=O)Cc2nccnc2Cl)n2nc(C3(CO)CC3)nc12` [Compound 126, 2-(3-Chloro-pyrazin-2-yl)-1-[2-(1-hydroxymethyl-cyclopropyl)-8-methoxy-[1,2,4]triazolo[1,5-a]pyridin-5-yl]-ethanone], for which the IC50 in experiment [1] was found to be 548 nM; in experiment [2], 712 nM.

Consider `COc1ccc(C(=O)Cc2ccccc2Cl)n2nc(C3CC3)nc12` [Compound 127, 2-(2-Chloro-phenyl)-1-(2-cyclopropyl-8-methoxy-[1,2,4]triazolo[1,5-a]pyridin-5-yl)-ethanone], for which the IC50 in experiment [2] worked out at 105 nM.

As for `COc1ccc(C(=O)Cc2c(Cl)c[n+]([O-])cc2Cl)n2nc(C3CC3)nc12` [Compound 128, 1-(2-Cyclopropyl-8-methoxy-[1,2,4]triazolo[1,5-a]pyridin-5-yl)-2-(3,5-dichloro-1-oxy-pyridin-4-yl)-ethanone], the IC50 in experiment [2] was 5 nM.

For the origin of these results see patent US8829190B2, “Triazolopyridines as phosphodiesterase inhibitors for treatment of dermal diseases” (Leo Pharma A/S, priority 2007, dated 2014).
